Measurements from publication PMC5650142, “GPR40 partial agonists and AgoPAMs: Differentiating effects on glucose and hormonal secretions in the rodent” (PLoS ONE, 2017).
Where “and” joins values, the source holds several entries; their conditions need not be identical. Identical values can stand only once.

Test system: GK rats
Test: GK rat chronic efficacy (28 days: glucose, food intake, body weight, GLP-1, GIP, PYY, insulin, glucagon)
Assay type: in vivo
Set-up: Food Intake Over Time (Fig 3C) / Total Body Weight Change Over Time / Active GLP-1 Levels Over Time: unit not given here
Conditions: for Total Body Weight Change Over Time / Active GLP-1 Levels Over Time / GIP Levels Over Time / PYY Levels Over Time / Plasma Insulin Over Time: GK rats
Method: At the start of the study, fed (ambient) blood glucose was measured via glucometer at 1 h post lights on, and animals were selected and sorted into treatment groups based on ambient glucose (n = 10/ GK group, n = 6 WKY control). Blood for baseline incretin measurements was collected in the PM via tail vein. Rats were dosed via oral gavage (PO) at a volume of 5 ml/kg daily at approximately 12:30 PM with either vehicle (0.5% methylcellulose), AP1 at 30 mg/kg, or AP3 at 30 mg/kg. MK-8666, a GPR40 partial agonist synthesized at Merck & Co., Inc., Kenilworth, NJ USA [13], at 30 mg/kg was administered in feed (Research Diets, New Brunswick, NJ) and provided ad lib. All compounds were administered to achieve maximal efficacious exposures determined in acute efficacy studies similar to those acute studies described above. In brief, partial agonists and AgoPAMs were titrated in the acute GK rat experiment described above and the exposure associated with maximal efficacy in glucose lowering was noted. Partial agonists and AgoPAMs were then dosed to maintain those exposures up to 24h post dose. […] Rats from this group and the WKY controls were administered vehicle PO when the vehicle, AP1, and AP3 groups were treated. Fed blood glucose, food intake, and body weights were determined on days 10, 17, 23, and 28 of study at 2 h post lights on. Immediately after these measures were taken on days 10, 17, 23, and 28, food was removed. After 5h of fasting, animals were dosed with vehicle or compound and allowed to rest for an additional hour. Glucose, GLP-1, GIP, and PYY were measured after 6h of fasting at 1 hr post dose. Fed blood glucose is described by animals having had ad libidum access to feed up till the time of sampling and occurred at 2h post-lights on where rats were nearing the end of their nocturnal feeding cycle. Fasted blood glucose is described by blood glucose sampled after 6h of fasting where food was removed at 2h post lights on. Please note that the fasted sample was taken 1h post oral dosing. On day 10, blood was collected from the tail vein (20 μl) after morning glucose measures and after 6 hour fast from a subset of n = 3 rats per treatment group to determine the fed and fasted exposure of the compounds in circulation. The blood was stored at 4°C in 0.1 M sodium citrate for subsequent analysis of drug exposure.
Blood for insulin, glucagon, GLP-1, GIP, and PYY measurements was collected into K2EDTA Microtainer tubes (BD, Franklin Lakes, NJ) pre-treated with DPP4 inhibitor (Millipore, Billerica, MA) and cOmplete™ Protease Inhibitor Cocktail Tablets (Roche Diagnostics, Indianapolis, IN). Tubes were centrifuged for 10 minutes at 5000 RPM, and plasma was aliquotted for analysis. Plasma insulin levels were measured via EIA (Mesoscale Discovery ELISA Kit, Gaithersburg MD). Rat plasma total GLP-1 was measured using Total GLP-1 (ver.2) Assay Kit (Cat#: K150JVC). The measurement of active GLP-1 was carried out in a similar manner as that described for total GLP-1 assay with the exception that MSD Active GLP-1 (ver. 2) assay kit (Cat# K150JWC) was used. Rat plasma glucagon was measured using an in-house glucagon assay developed as a MSD format sandwich immunoassay (Merck & Co., Inc., MRL, Kenilworth, NJ USA). The antibody specificity was cross validated via mass- spec using procedures described in Lee et al. Briefly, MSD Streptavidin Gold plates were coated with 2 μg/ml biotin mouse monoclonal antibody generated to glucagon. Test samples were added to the plates and a separate Sulfo- tagged monoclonal antibody was used to detect the captured glucagon protein (2 μg/ml). The ELISA was carried out in the standard reagents in the MSD format. The plate was read on the SECTOR Imager 6000 Reader. Metabolic hormones GIP (Gastric Inhibitory Polypeptide) and PYY (Peptide YY) were measured in rat plasma using the Rat Metabolic Magnetic Bead Panel (EMD Millipore, Billerica, MA). The assay was performed according to manufacturer protocol. […]

[1] = 30 mpk, Day 0, individual animals (Fig 3D)
[2] = 30 mpk, Day 0, individual animals (Fig 4B), 30 mg/kg
[3] = 30 mpk, Day 0, individual animals (Fig 5A), 30 mg/kg
[4] = 30 mpk, Day 10, individual animals (Fig 3D), 30 mg/kg
[5] = 30 mpk, Day 10, individual animals (Fig 4B), 30 mg/kg
[6] = 30 mpk, Day 10, individual animals (Fig 4C), 30 mg/kg, in pg/mL (unit assumed)
[7] = 30 mpk, Day 10, individual animals (Fig 4D), 30 mg/kg, in pg/mL (unit assumed)
[8] = 30 mpk, Day 10, individual animals (Fig 5A), 30 mg/kg
[9] = 30 mpk, Day 17, individual animals (Fig 3D), 30 mg/kg
[10] = 30 mpk, Day 17, individual animals (Fig 4B), 30 mg/kg
[11] = 30 mpk, Day 17, individual animals (Fig 4C), 30 mg/kg, in pg/mL (unit assumed)
[12] = 30 mpk, Day 17, individual animals (Fig 4D), 30 mg/kg, in pg/mL (unit assumed)
[13] = 30 mpk, Day 17, individual animals (Fig 5A), 30 mg/kg
[14] = 30 mpk, Day 23, individual animals (Fig 3D), 30 mg/kg
[15] = 30 mpk, Day 28, individual animals (Fig 3D), 30 mg/kg
[16] = 30 mpk, Day 28, individual animals (Fig 4B), 30 mg/kg
[17] = 30 mpk, Day 28, individual animals (Fig 4C), 30 mg/kg, in pg/mL (unit assumed)
[18] = 30 mpk, Day 28, individual animals (Fig 4D), 30 mg/kg, in pg/mL (unit assumed)
[19] = 30 mpk, Day 28, individual animals (Fig 5A), 30 mg/kg

Structure (SMILES) | Food Intake Over Time (Fig 3C) (30 mpk, Day 10) | Food Intake Over Time (Fig 3C) (30 mpk, Day 17) | Food Intake Over Time (Fig 3C) (30 mpk, Day 23) | Food Intake Over Time (Fig 3C) (30 mpk, Day 28) | Total Body Weight Change Over Time [1] | Active GLP-1 Levels Over Time [2] | Plasma Insulin Over Time [3] | Total Body Weight Change Over Time [4] | Active GLP-1 Levels Over Time [5] | GIP Levels Over Time [6] | PYY Levels Over Time [7] | Plasma Insulin Over Time [8] | Total Body Weight Change Over Time [9] | Active GLP-1 Levels Over Time [10] | GIP Levels Over Time [11] | PYY Levels Over Time [12] | Plasma Insulin Over Time [13] | Total Body Weight Change Over Time [14] | Total Body Weight Change Over Time [15] | Active GLP-1 Levels Over Time [16] | other results
C[C@H](C(=O)O)[C@H](c1ccc2c(c1)O[C@H](C1CN(Cc3cc(C(F)(F)F)ccc3C(F)(F)F)C1)CC2)C1CC1 [AP3] | 15.815 and 14.78 and 14.855 and 15.07 and 14.37 | 16.6286 and 16.6643 and 16.8143 and 16.8286 and 16.8071 | 18.5083 and 18.3917 and 17.85 and 19.125 and 17.525 | 17.91 and 18.83 and 18.78 and 18.96 and 19.28 | 0 | 1.077 and 2.563 and 1.567 and 0.8713 and 1.148 and 1.431 and 1.186 and 1.3237 and 1.438 and 1.6108 | 1.29 ng/mL and 1.017 ng/mL and 1.844 ng/mL and 1.516 ng/mL and 2.832 ng/mL and 2.437 ng/mL and 2.602 ng/mL and 2.286 ng/mL and 2.384 ng/mL and 3.155 ng/mL | 11 and 17 and 1 (4×) and 8 and 2 and -5 and -10 | 10.2264 and 10.1136 and 9.093 and 7.341 and 9.911 and 6.136 and 9.947 and 8.858 and 9.564 and 4.836 | 131.59 and 538.63 and 268.56 and 356.56 and 280.21 and 297.28 and 251.81 and 343.6 and 366.22 and 226.85 | 327.63 and 434.04 and 220.17 and 263.06 and 264.64 and 198.53 and 67.33 and 282.5 and 263.78 and 239.29 | 0.805 ng/mL and 1.032 ng/mL and 1.336 ng/mL and 1.205 ng/mL and 1.609 ng/mL and 1.271 ng/mL and 0.3056 ng/mL and 1.028 ng/mL and 1.285 ng/mL and 1.24 ng/mL | 17 and 22 and 6 (2×) and 19 and 5 and 10 and 7 and 3 and 4 | 8.7 and 6.18 and 9.28 and 4.41 and 6.22 and 9.2 and 7.03 and 4.78 and 4.82 and 5.22 | 453.42 and 366.18 and 475.48 and 267.46 and 451.8 and 353.69 and 400.36 and 407.49 and 350.93 | 179 and 263.66 and 236.63 and 203.98 and 272.19 and 278.33 and 130.51 and 189.28 and 188.49 | 0.5609 ng/mL and 0.9183 ng/mL and 0.2807 ng/mL and 1.641 ng/mL and 1.961 ng/mL and 1.708 ng/mL and 1.453 ng/mL and 0.6985 ng/mL and 1.1926 ng/mL and 1.855 ng/mL | 28 and 34 and 22 and 15 and 18 and 7 and 14 and 17 and 6 and 4 | 30 and 36 and 25 and 20 and 21 and 10 and 19 and 22 and 14 (2×) | 7.945 and 6.4879 and 5.324 and 10.6145 and 8.6355 and 6.965 and 4.915 and 7.012 and 6.997 and 8.043 | GIP Levels Over Time (30 mpk, Day 0, individual animals (Fig 4C), 30 mg/kg): 64.6 and 61.42 and 49.69 and 65.31 and 46.23 (2×) and 37.69 and 48.72 and 40.59 and 29.52; PYY Levels Over Time (30 mpk, Day 0, individual animals (Fig 4D), 30 mg/kg, in pg/mL (unit assumed)): 45.68 and 75.54 and 74.62 and 61.64 and 36.39 and 74.15 and 136.82 and 43.52 and 46.38 and 67.65; GIP Levels Over Time [17]: 257.43 and 223.283 and 216.92 and 196.33 and 188.58 and 171.99 and 248.64 and 189.72 and 162.6 and 177.95; PYY Levels Over Time [18]: 237.97 and 76.0833 and 195.93 and 219.09 and 189.97 and 176.63 and 223.29 and 158.15 and 160.92 and 153.75; Plasma Insulin Over Time [19]: 0.8153 ng/mL and 0.3115 ng/mL and 0.9427 ng/mL and 0.8881 ng/mL and 1.431 ng/mL and 0.8809 ng/mL and 1.428 ng/mL and 1.376 ng/mL and 1.352 ng/mL and 1.27 ng/mL
COc1ccc(F)c(-c2ccc([C@@H]3CCc4ccc([C@H](C5CC5)[C@H](C)C(=O)O)cc4O3)cc2)c1 [AP1] | 14.85 and 15.61 and 15.57 and 15.255 and 16.22 | 15.5286 and 15.8857 and 16.0214 and 17.2929 and 17.7357 | 16.8417 and 19.1417 and 18.7583 and 18.725 and 18.4 | 16.96 and 17.9 and 19.14 and 19.07 and 19.25 | 0 | 1.001 and 1.9298 and 1.3237 and 1.012 and 1.8577 and 2.191 and 1.713 and 1.556 and 0.8866 and 1.073 | 1.323 ng/mL and 1.278 ng/mL and 2.387 ng/mL and 1.318 ng/mL and 1.715 ng/mL and 1.561 ng/mL and 2.638 ng/mL and 2.341 ng/mL and 1.122 ng/mL and 2.349 ng/mL | 10 and 3 (2×) and 13 and 6 and 2 (3×) and -13 and 5 | 10.3955 and 6.299 and 7.593 and 12.0213 and 6.042 and 7.2 and 9.814 and 9.197 and 8.5449 and 7.4703 | 505.7 and 493.84 and 467.75 and 217.82 and 519.4 and 141.67 and 384.6 and 413 and 296.23 and 81.09 | 253.19 and 328.35 and 279.77 and 271.66 and 270.68 and 232.37 and 216.99 and 227.15 and 181.2 and 198.89 | 1.155 ng/mL and 0.724 ng/mL and 1.551 ng/mL and 0.8718 ng/mL and 1.112 ng/mL and 0.8329 ng/mL and 1.613 ng/mL and 0.7139 ng/mL and 1.088 ng/mL and 1.543 ng/mL | 18 (2×) and 8 and 24 and 16 and 0 and 7 and -9 and 10 and 9 | 8.6 and 3.38 and 5.23 and 6.69 and 6.32 and 4.97 and 3.57 and 4.69 and 6.47 and 5.55 | 378.278 and 410.03 and 370.39 and 471.66 and 268.89 and 337.14 and 352.79 and 447.92 and 402.03 | 228.528 and 168.33 and 149.79 and 211.65 and 178.66 and 141.57 and 165.72 and 207.01 and 161.08 | 1.312 ng/mL and 1.435 ng/mL and 1.262 ng/mL and 0.9925 ng/mL and 0.7824 ng/mL and 0.7213 ng/mL and 1.004 ng/mL and 1.148 ng/mL and 1.876 ng/mL and 2.528 ng/mL | 24 and 11 and 37 and 25 and 27 and 22 and 16 and -6 and 9 and 12 | 32 and 14 and 36 and 27 and 34 and 30 and 23 and 3 and 20 and 21 | 4.803 and 5.789 and 8.538 and 7.972 and 5.7178 and 6.58 and 6.497 and 8.013 and 7.134 and 7.267 | Fed glucose on day 28 (Fig 3B) (30 mpk, day 28, fed, individual animals): 126 and 113 and 121 and 107 and 114 and 98 and 108 and 105 and 131; fed blood glucose vs partial agonist MK-8666 (GK rat, 30 mg/kg, day 28): significantly reduced; GIP Levels Over Time (30 mpk, Day 0, individual animals (Fig 4C), 30 mg/kg, in pg/mL (unit assumed)): 80.27 and 43.35 and 55.2 and 66.33 and 82.49 and 41.1 and 77.69 and 54.81 and 38.69 and 31.07; PYY Levels Over Time (30 mpk, Day 0, individual animals (Fig 4D), 30 mg/kg): 60.82 and 59.71 and 48.43 and 38.89 and 91.83 and 69.38 and 126.38 and 46.38 (2×) and 80.42; GIP Levels Over Time [17]: 265.13 and 306.48 and 225.82 and 160.64 and 220.15 and 277.09 and 298.29 and 238.76 and 210.52 and 175.96; PYY Levels Over Time [18]: 152.15 and 162.1 and 214.06 and 98.83 and 138.17 and 173.94 and 241.37 and 220.84 and 169.14 and 119.76; Plasma Insulin Over Time [19]: 1.27 ng/mL and 1.377 ng/mL and 1.276 ng/mL and 0.4335 ng/mL and 1.675 ng/mL and 1.248 ng/mL and 2.339 ng/mL and 0.9305 ng/mL and 0.8869 ng/mL and 1.165 ng/mL
